Earlier results, collected in article PMC10318822, “Phase 1 dose-escalation study to evaluate the safety, tolerability, pharmacokinetics, and anti-tumor activity of FCN-159 in adults with neurofibromatosis type 1-related unresectable plexiform neurofibromas” (BMC Medicine, 2023).

Tested on: CYP3A4
Parameters: method as in PMID 36755948
Details: in vitro study; cited from earlier work

For Cn1c(=O)c(F)c(Nc2ccc(I)cc2F)c2c(=O)n(C3CC3)nc(-c3cccc(NS(=O)(=O)C4CC4)c3)c21 [FCN-159], the Metabolism is listed as “metabolized primarily by CYP3A4”.
